From US9839642B2, “Beta-tetrazolyl-propionic acids as metallo-beta-lactamase inhibitors” (priority 2014, dated 2017)
Read-outs that look alike come from different tables or passages of the source.

Experiments:
[1] = system: Serratia marcescens expressing IMP-1 (CL5741); experiment: Antibiotic potentiation activity: synergistic concentration (MITC95) with imipenem, growth by OD600; type: cell-based
Procedure: (§1) Antibiotic Potentiation Activity: Determination of Synergistic Concentration
(§2) The bacterial strains tested included the clinical strains Escherichia coli expressing NDM-1 (CLB30005, CLB30016), Serratia marcescens expressing IMP-1 (CL5741), and Klebsiella pneumoniae expressing VIM-1 (IHMA599644). Inhibitor activity was measured in the presence and absence of imipenem or ceftazidime in a 384-well microplate.
(§3) The clinical strains CLB30016, CL5741, and IHMA599644 were grown on trypticase soy agar containing 5% sheep's blood. The clinical strain CLB30005 was grown on Mueller Hinton broth agar containing 8 μg/ml imipenem. The bacteria on agar plates were incubated overnight at 35° C. with ambient humidity (achieved from an open pan of water inside the incubator). The following day, individual colonies from each clinical strain were picked and resuspended in 5 ml saline to attain an OD600 of 0.14, 0.11, 0.15 and 0.13, for CLB30005, CLB30016, CL5741 and IHMA599644, respectively. These were further diluted 1:100 into 1.1×CAMHB and used to inoculate the test wells as described below.
(§4) Imipenem in 10 mM 3-(N-morpholino)propanesulfonic acid (MOPS, pH 7) was stored in single use aliquots at −80° C. Test inhibitors were dissolved in DMSO and diluted 1:50 in the assay, resulting in a final concentration range of 200 μM to 0.195 μM. On the day of the assay, 4 μl of antibiotic was added to 45 μl of bacteria followed by 1 μl of test compound and mixed by pipetting and with an orbital shaker. The concentration of antibiotic used in the assay was 1 μg/ml or 4 μg/ml. Microplates were covered and incubated at 35° C. for 22 hours to 24 hours. At the end of the incubation, absorbance was determined using a spectrophotometer. The synergistic concentration of MBLI was determined by identifying the lowest concentration of test compound in the presence of a given concentration of antibiotic that was required to inhibit 95% of the growth of the bacteria.
(§5) Representative compounds of the present invention display a synergistic effect. For example, representative compounds of EXAMPLES 1-456 were determined to restore susceptibility to imipenem at concentrations of 200 μM or less.

[2] = system: Klebsiella pneumoniae expressing VIM-1 (IHMA599644); experiment: as above; type: cell-based
Procedure: as §1, §2, §3, §4, §5

[3] = system: Escherichia coli expressing NDM-1 (CLB30016); experiment: as above; type: cell-based
Procedure: as §1, §2, §3, §4, §5

IMP-1 = IMP-1 (Serratia marcescens, UniProt P52699); experiment: Enzyme activity: determination of IC50, fluorescence assay with CCF2-FA substrate; type: biochemical; settings: CCF2-FA 1.25 μM, 2 hours at 25° C., read-out: IMP1 IC50
Procedure: (§6) Enzyme Activity: Determination of IC50
(§7) The Class B enzyme activities were measured in the presence of a compound of the EXAMPLES as a test inhibitor in a fluorescence assay against a commercially available substrate consisting of a cephalosporin core linking 7-hydroxycoumarin to fluorescein (CCF2-FA; Life Technologies, Grand Island, N.Y.). The enzyme (NDM-1, IMP-1 or VIM-1) and the substrate were diluted in 100 mM KH2PO4 buffer (pH 7) containing 0.005% Tween-20 and 10 μM ZnSO4. In the assay, the final concentration of enzyme was 1 pM, 2 pM and 30 pM for NDM-1, IMP-1 and VIM-1, respectively, and the final concentration of CCF2-FA was 1.25 μM. The test inhibitor was dissolved in DMSO and diluted 1:50 in the assay, resulting in a final concentration range of 20 μM to 0.00063 μM. In a 384-well microplate, the test inhibitor was incubated with the metallo-β-lactamase enzyme and the substrate for 2 hours at 25° C. Fluorescence at 460 nm following excitation at 405 nm was measured. The IC50 value was determined from semi-logarithmic plots of enzyme inhibition versus inhibitor concentration, with a curve generated using a 4-parameter fit.

NDM-1 = NDM-1 (Klebsiella pneumoniae, UniProt C7C422); experiment: as above; type: biochemical; settings: CCF2-FA 1.25 μM, 2 hours at 25° C., read-out: NDM1 IC50
Procedure: as §6, §7

VIM-1 = VIM-1 (Pseudomonas aeruginosa, UniProt A0A0F7KYQ8); experiment: as above; type: biochemical; settings: CCF2-FA 1.25 μM, 2 hours at 25° C., read-out: VIM1 IC50
Procedure: as §6, §7

[4] = S. marcescens CL5741 (IMP-1), 95% inhibition of growth
[5] = K. pneumoniae IHMA599644 (VIM-1), 95% inhibition of growth
[6] = E. coli CLB30016 (NDM-1), 95% inhibition of growth
[7] = 95% inhibition of bacterial growth, strain CL5741
[8] = 95% inhibition of bacterial growth, strain IHMA599644
[9] = 95% inhibition of bacterial growth, strain CLB30016

Sequence of IMP-1 (P52699 19-246, looked up, species assumed): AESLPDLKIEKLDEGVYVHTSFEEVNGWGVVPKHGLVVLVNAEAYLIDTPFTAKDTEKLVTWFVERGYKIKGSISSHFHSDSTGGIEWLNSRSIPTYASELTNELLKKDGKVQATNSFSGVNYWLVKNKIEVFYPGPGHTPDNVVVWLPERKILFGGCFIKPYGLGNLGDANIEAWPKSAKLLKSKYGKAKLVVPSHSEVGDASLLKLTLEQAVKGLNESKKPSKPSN
Sequence of NDM-1 (C7C422 29-270, looked up, species assumed): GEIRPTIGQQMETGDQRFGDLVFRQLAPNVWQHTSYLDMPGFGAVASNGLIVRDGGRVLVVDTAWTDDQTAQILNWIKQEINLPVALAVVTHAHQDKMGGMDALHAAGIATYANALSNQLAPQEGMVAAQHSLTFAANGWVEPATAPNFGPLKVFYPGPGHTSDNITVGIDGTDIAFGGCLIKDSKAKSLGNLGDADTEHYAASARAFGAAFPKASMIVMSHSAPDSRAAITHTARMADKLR

Compound	IMP1 SM5741 MITC95 [1, 4] [µM]	VIM1 KP599644 MITC95 [2, 5] [µM]	NDM1 EC30016 MITC95 [3, 6] [µM]	IC50 (IMP-1; IMP-1 enzyme 2 pM) [nM]	IC50 (NDM-1; NDM-1 enzyme 1 pM) [nM]	IC50 (VIM-1; VIM-1 enzyme 30 pM) [nM]	IMP1 SM5741 MITC95 [1, 7] [µM]	VIM1 KP599644 MITC95 [2, 8] [µM]	NDM1 EC30016 MITC95 [3, 9] [µM]	IC50 (IMP-1; enzyme 2 pM) [nM]	IC50 (NDM-1; enzyme 1 pM) [nM]	IC50 (VIM-1; enzyme 30 pM) [nM]
CCC[C@H](C(=O)O)[C@H](Cc1ccc(C2CCNCC2O)cc1)c1nnn[nH]1 (mixture of isomers) [Example 416, (2S)-2-((1S)-2-(4-(3-hydroxypiperidin-4-yl)phenyl)-1-(1H-tetrazol-5-yl)ethyl)pentanoic acid]	25	25	25	1140	280	20.8						
CCC[C@H](C(=O)O)C(Cc1cccc(C(F)(F)F)c1)c1nnn[nH]1 (stereo in doubt) [Example 267, (2S)-2-{(1S)-1-(1H-tetrazol-5-yl)-2-[3-(trifluoromethyl)phenyl]ethyl}pentanoic acid]	9.4	18.8	9.4	280	14	0.86						
CCC[C@H](C(=O)O)C(Cc1ccccc1C(F)(F)F)c1nnn[nH]1 (stereo in doubt) [Example 268, (2S)-2-{(1S)-1-(1H-tetrazol-5-yl)-2-[2-(trifluoromethyl)phenyl]ethyl}pentanoic acid]	75	12.5	7.8	2700	6.4	3.2						
CCC[C@H](C(=O)O)[C@H](Cc1cccc(Br)c1)c1nn[nH]n1 [Example 16, (S)-2-((S)-2-(3-bromophenyl)-1-(2H-tetrazol-5-yl)ethyl)pentanoic acid]							4.7	9.4	9.4	120	12	0.75
CC(C)[C@H](C(=O)O)[C@H](Cc1csc(C2=CCNC2)n1)c1nnn[nH]1 [Example 71, (2S,3S)-4-(2-(2,5-dihydro-1H-pyrrol-3-yl)thiazol-4-yl)-2-isopropyl-3-(1H-tetrazol-5-yl)butanoic acid]							>200	25	12.5		570	120
CCC[C@H](C(=O)O)[C@H](Cc1cnc(N2CCNCC2)s1)c1nnn[nH]1 [Example 120, (S)-2-((S)-2-(2-(piperazin-1-yl)thiazo1-5-yl)-1-(1H-tetrazol-5-yl)ethyl)pentanoic acid]							>200	37	25		1200	8.5
CC(C)C[C@H](C(=O)O)[C@H](Cc1ccc(N2CC(N3CCNCC3)C2)nc1)c1nnn[nH]1 [Example 324, (2S)-4-methyl-2-[(1S)-2-[6-(3-piperazin-1-ylazetidin-1-yl)pyridin-3-yl]-1-(1H-tetrazol-5-yl)ethyl]pentanoic acid]	>200	>200	>200									
CC(C)C[C@H](C(=O)O)[C@H](Cc1ccc(N2CC(N3CCNCC3)C2)nc1)c1nnn[nH]1 [Example 334, (2S)-4-methyl-2-[(1S)-2-[6-(3-piperazin-1-ylazetidin-1-yl)pyridin-3-yl]-1-(1H-tetrazol-5-yl)ethyl]pentanoic acid]	25	50	6.2									
CC(C)C[C@H](C(=O)O)[C@H](Cc1ccc(Oc2ccc(CCN)cc2)nc1)c1nn[nH]n1 [Example 371, (2S)-2-[(1S)-2-{6-[4-(2-aminoethyl)phenoxy]pyridin-3-yl}-1-(2H-tetrazol-5-yl)ethyl]-4-methylpentanoic acid]	12.5	75	12.5	290	93							
CC(C)C[C@H](C(=O)O)[C@H](Cc1ccc(Oc2ccccc2N2CCNCC2)nc1)c1nn[nH]n1 [Example 372, (2S)-4-methyl-2-[(1S)-2-[6-(2-piperazin-1-ylphenoxy)pyridin-3-yl]-1-(2H-tetrazol-5-yl)ethyl]pentanoic acid]	75	>200	38	1600	570							
CC(C)C[C@H](C(=O)O)[C@H](Cc1ccc(Oc2ccccc2N2CCNCC2)nc1)c1nn[nH]n1 [Example 387, (2S)-4-methyl-2-[(1S)-2-[6-(2-piperazin-1-ylphenoxy)pyridin-3-yl]-1-(2H-tetrazol-5-yl)ethyl]pentanoic acid]	>200	>200	>200	2400	880							
CC(C)C[C@H](C(=O)O)[C@H](Cc1ccc(Oc2ccc(CCN)cc2)nc1)c1nn[nH]n1 [Example 392, (2S)-2-[(1S)-2-{6-[4-(2-aminoethyl)phenoxy]pyridin-3-yl}-1-(2H-tetrazol-5-yl)ethyl]-4-methylpentanoic acid]	25	75	6.2	270	49							
CC(C)(C)[C@H](C(=O)O)[C@H](Cc1ccc(NCCO)nc1)c1nnn[nH]1.O=C(O)C(F)(F)F [Example 428, 2,2,2-trifluoroacetate]				18.8	45.4	37.2						
CC(C)(C)[C@H](C(=O)O)[C@H](Cc1ccc(NCCO)nc1)c1nnn[nH]1.O=C(O)C(F)(F)F [Example 428]	1.563	12.5	0.7813									
